Drawing on patent US8653089B2, “Heterocyclic compounds and methods of use” (F. Hoffmann-La Roche AG, priority 2011, dated 2014), this text covers IC50 for 34 molecules.

This test deals with production of CD69 by B lymphocytes in human whole blood activated by crosslinking surface IgM. As to the kind of experiment: CD69 human whole blood assay (Example 903), FACS. The note with it: B lymphocytes activated with goat F(ab')2 anti-human IgM, read-out: CD69 Hu Blood FACS IC50. Format: cell-based. From the text: There is good evidence that B-cells play a key role in the pathogenesis of autoimmune and/or inflammatory disease. Protein-based therapeutics that deplete B cells such as Rituxan are effective against autoantibody-driven inflammatory diseases such as rheumatoid arthritis (Rastetter et al. (2004) Annu Rev Med 55:477). CD69 is the early activation marker in leukocytes including T cells, thymocytes, B cells, NK cells, neutrophils, and eosinophils. The CD69 human whole blood assay (Example 903) determines the ability of compounds to inhibit the production of CD69 by B lymphocytes in human whole blood activated by crosslinking surface IgM with goat F(ab′)2 anti-human IgM.

Where two headings read alike, the source gives them in different places.

As to `Cc1nc(N)nc(N[C@@H](C)c2nc3ccc(F)cc3n2-c2ccccc2)n1` [Example 258, N—[(S)-1-(6-Fluoro-1-phenyl-1H-benzoimidazol-2-yl)-ethyl]-6-methyl-[1,3,5]triazine-2,4-diamine], the IC50 (as a rule, the point on the concentration scale where inhibition reaches its midpoint) (Homo sapiens, Lymphocyte) came to 0.141 µM. The same measure, in the same setting: next, `CC(Nc1ncnc2[nH]cnc12)c1nc2ccc(F)cc2n1-c1ccc(F)cc1` (stereo not shown) [Example 221, {1-[6-Fluoro-1-(4-fluoro-phenyl)-1H-benzoimidazol-2-yl]-ethyl}-(9H-purin-6-yl)-amine]: 0.152 µM. On to `CCC(Nc1ncnc2[nH]cnc12)c1nc2ccc(F)cc2n1-c1cccnc1` (stereo not shown) [Example 205, [1-(6-Fluoro-1-pyridin-3-yl-1H-benzoimidazol-2-yl)-propyl]-(9H-purin-6-yl)-amine], for which the IC50 (Homo sapiens, Lymphocyte) stood at 0.0429 µM. Still for that read-out and setting: next, `CC(Nc1ncnc2[nH]cnc12)c1nc2ccc(F)c(C(=O)N(C)C)c2n1-c1ccccc1` (stereo not shown) [Example 204, 5-Fluoro-3-phenyl-2-[1-(9H-purin-6-ylamino)-ethyl]-3H-benzoimidazole-4-carboxylic acid dimethylamide]: 0.0675 µM.

`CC(Nc1ncnc2[nH]cnc12)c1nc2ccc(F)cc2n1-c1ccccn1` (stereo not shown) [Example 210, [1-(6-Fluoro-1-pyridin-2-yl-1H-benzoimidazol-2-yl)-ethyl]-(9H-purin-6-yl)-amine]: the IC50 stood at 0.0202 µM. In the case of `CC(Nc1ncnc2[nH]cnc12)c1nc2ccc(F)c(C(=O)N3CCN(C)CC3)c2n1-c1ccccc1` (stereo not shown) [Example 202, {5-Fluoro-3-phenyl-2-[1-(9H-purin-6-ylamino)-ethyl]-3H-benzoimidazol-4-yl}-(4-methyl-piperazin-1-yl)-methanone], where the note is “Homo sapiens, Lymphocyte”, the IC50 stood at 0.0141 µM. Same read-out and setting: next, `C[C@H](Nc1ncnc2[nH]cnc12)c1nc2ccc(F)c(C(=O)N3CCOCC3)c2n1C1CC1` [Example 389, [3-cyclopropyl-5-fluoro-2-[(1S)-1-(9H-purin-6-ylamino)ethyl]benzimidazol-4-yl]-morpholino-methanone]: 0.0119 µM; `Cc1nc(N)nc(N[C@@H](C)c2nc3ccc(F)cc3n2-c2ccccn2)c1C#N` [Example 333, 2-Amino-4-[(S)-1-(6-fluoro-1-pyridin-2-yl-1H-benzoimidazol-2-yl)-ethylamino]-6-methyl-pyrimidine-5-carbonitrile]: 0.00492 µM.

Take `C[C@H](Nc1ncnc(N)c1C#N)c1nc2ccc(F)cc2n1-c1ccccn1` [Example 275, 4-Amino-6-[(S)-1-(6-fluoro-1-pyridin-2-yl-1H-benzoimidazol-2-yl)-ethylamino]-pyrimidine-5-carbonitrile]: the IC50 (Homo sapiens, Lymphocyte) stood at 0.0275 µM.

For `C[C@H](Nc1ncnc(N)c1C#N)c1nc2ccc(F)c(CC#N)c2n1-c1ccccc1` [Example 345, 4-Amino-6-[(S)-1-(7-cyanomethyl-6-fluoro-1-phenyl-1H-benzoimidazol-2-yl)-ethylamino]-pyrimidine-5-carbonitrile], where the note is “Homo sapiens, Lymphocyte”, the IC50 is 0.00291 µM. With `CC(Nc1ncnc2[nH]cnc12)c1nc2ccc(F)cc2n1-c1ccc(F)cn1` (stereo not shown) [Example 208, {1-[6-Fluoro-1-(5-fluoro-pyridin-2-yl)-1H-benzoimidazol-2-yl]-ethyl}-(9H-purin-6-yl)-amine], the IC50 (Homo sapiens, Lymphocyte) is 0.206 µM. Consider `C[C@H](Nc1ncnc2[nH]cnc12)c1nc2ccc(F)cc2n1-c1cnn(C)c1` [Example 419, N-[(1S)-1-[6-fluoro-1-(1-methylpyrazol-4-yl)benzimidazol-2-yl]ethyl]-9H-purin-6-amine], for which the IC50 (Homo sapiens, Lymphocyte) was 0.0433 µM. On to `COC[C@H](Nc1ncnc(N)c1C#N)c1nc2ccc(F)cc2n1-c1ccccn1` [Example 271, 4-Amino-6-[(R)-1-(6-fluoro-1-pyridin-2-yl-1H-benzoimidazol-2-yl)-2-methoxy-ethylamino]-pyrimidine-5-carbonitrile], for which the IC50 (Homo sapiens, Lymphocyte) came to 0.0388 µM.

With `COC(=O)c1c(F)ccc2nc(C(C)Nc3ncnc4[nH]cnc34)n(-c3ccccc3)c12` (stereo not shown) [Example 197, 5-Fluoro-3-phenyl-2-[1-(9H-purin-6-ylamino)-ethyl]-3H-benzoimidazole-4-carboxylic acid methyl ester], the IC50 (Homo sapiens, Lymphocyte) was determined as 0.0316 µM.

Turning to `COCC(Nc1ncnc2nc[nH]c12)c1nc2ccc(F)cc2n1-c1ccccc1` (stereo not shown) [Example 171, [1-(6-Fluoro-1-phenyl-1H-benzoimidazol-2-yl)-2-methoxy-ethyl]-(7H-purin-6-yl)-amine], the IC50 (Homo sapiens, Lymphocyte) amounted to 0.106 µM.

As for `C[C@H](Nc1ncnc(N)c1C#N)c1nc2ccc(F)cc2n1-c1ccncc1` [Example 354, 4-Amino-6-[(S)-1-(6-fluoro-1-pyridin-4-yl-1H-benzoimidazol-2-yl)-ethylamino]-pyrimidine-5-carbonitrile], the IC50 (Homo sapiens, Lymphocyte) came to 0.0484 µM. Still for that read-out and setting: next, `C[C@H](Nc1ncnc2[nH]cnc12)c1nc2ccc(F)cc2n1-c1ccn(C)n1` [Example 403, N-[(1S)-1-[6-fluoro-1-(1-methylpyrazol-3-yl)benzimidazol-2-yl]ethyl]-9H-purin-6-amine]: 0.163 µM.

As for `OCC(Nc1ncnc2nc[nH]c12)c1nc2ccc(F)cc2n1-c1ccccc1` (stereo not shown) [Example 172, 2-(6-Fluoro-1-phenyl-1H-benzoimidazol-2-yl)-2-(7H-purin-6-ylamino)-ethanol], the IC50 turned out to be 0.175 µM. On to `OC[C@H](Nc1ncnc2[nH]cnc12)c1nc2ccc(F)cc2n1-c1ccccn1` [Example 280, (R)-2-(6-Fluoro-1-pyridin-2-yl-1H-benzoimidazol-2-yl)-2-(9H-purin-6-ylamino)-ethanol], for which the IC50 (Homo sapiens, Lymphocyte) is 0.139 µM. Take `C[C@H](Nc1ncnc(N)c1C#N)c1nc2ccc(F)c(C#N)c2n1-c1ccccc1` [Example 330, 2-[(S)-1-(6-Amino-5-cyano-pyrimidin-4-ylamino)-ethyl]-5-fluoro-3-phenyl-3H-benzoimidazole-4-carbonitrile]: under “Homo sapiens, Lymphocyte”, the IC50 is 0.0129 µM. Same read-out and setting: the result for `C[C@H](Nc1ncnc2[nH]cnc12)c1nc2ccc(F)c(C3CC3)c2n1-c1cccnc1` [Example 294, [(S)-1-(7-Cyclopropyl-6-fluoro-1-pyridin-3-yl-1H-benzoimidazol-2-yl)-ethyl]-(9H-purin-6-yl)-amine] reads 0.0041 µM. The same measure, in the same setting: next, `C[C@H](Nc1ncnc(N)c1C#N)c1nc2ccc(F)c(C#N)c2n1-c1ccccn1` [Example 291, 2-[(S)-1-(6-Amino-5-cyano-pyrimidin-4-ylamino)-ethyl]-5-fluoro-3-pyridin-2-yl-3H-benzoimidazole-4-carbonitrile]: 0.0972 µM; `CC[C@H](Nc1ncnc2[nH]cnc12)c1nc2ccc(F)cc2n1-c1ccccn1` [Example 247, [(S)-1-(6-Fluoro-1-pyridin-2-yl-1H-benzoimidazol-2-yl)-propyl]-(9H-purin-6-yl)-amine]: 0.405 µM.

Consider `C[C@H](Nc1ncnc2[nH]cnc12)c1nc2ccc(F)c(C(=O)N3CCOCC3)c2n1-c1ccccc1` [Example 273, {5-Fluoro-3-phenyl-2-[(S)-1-(9H-purin-6-ylamino)-ethyl]-3H-benzoimidazol-4-yl}-morpholin-4-yl-methanone], for which the IC50 (Homo sapiens, Lymphocyte) came out at 0.0268 µM. On the same count and under the same terms, next, `COc1ccc(-n2c(C(C)Nc3ncnc4[nH]cnc34)nc3ccc(F)cc32)cn1` (stereo not shown) [Example 207, {1-[6-Fluoro-1-(6-methoxy-pyridin-3-yl)-1H-benzoimidazol-2-yl]-ethyl}-(9H-purin-6-yl)-amine]: 0.798 µM; `C[C@H](Nc1ncnc(N)c1C#N)c1nc2ccc(F)c3c2n1CCCC3` [Example 406, 4-Amino-6-[(S)-1-(5-fluoro-6,7,8,9-tetrahydro-2,9a-diazabenzo[cd]azulen-1-yl)ethylamino]pyrimidine-5-carbonitrile]: 0.0326 µM. On to `CC(Nc1ncnc2[nH]cnc12)c1nc2ccc(F)cc2n1-c1cccnc1` (stereo not shown) [Example 220, [1-(6-Fluoro-1-pyridin-3-yl-1H-benzoimidazol-2-yl)-ethyl]-(9H-purin-6-yl)-amine], for which the IC50 was 0.0127 µM. Same read-out and setting: the result for `CC(Nc1ncnc2[nH]cnc12)c1nc2ccc(F)cc2n1-c1ccc(F)cc1` (stereo not shown) [Example 186, {1-[6-Fluoro-1-(4-fluoro-phenyl)-1H-benzoimidazol-2-yl]-ethyl}-(9H-purin-6-yl)-amine] reads 0.134 µM. As for `CC(Nc1ncnc2[nH]cnc12)c1nc2ccc(F)cc2n1-c1ccccc1` (stereo not shown) [Example 194, [1-(6-Fluoro-1-phenyl-1H-benzoimidazol-2-yl)-ethyl]-(9H-purin-6-yl)-amine], the IC50 (Homo sapiens, Lymphocyte) was found to be 0.0508 µM.

On to `CC(Nc1ncnc2[nH]cnc12)c1nc2ccc(F)c(C3CC3)c2n1-c1ccccc1` (stereo not shown) [Example 198, [1-(7-Cyclopropyl-6-fluoro-1-phenyl-1H-benzoimidazol-2-yl)-ethyl]-(9H-purin-6-yl)-amine], for which the IC50 (Homo sapiens, Lymphocyte) came to 0.0109 µM. The same measure, in the same setting: the result for `COC[C@H](Nc1ncnc2[nH]cnc12)c1nc2ccc(F)c(C)c2n1-c1ccccc1` [Example 188, [(R)-1-(6-Fluoro-7-methyl-1-phenyl-1H-benzoimidazol-2-yl)-2-methoxy-ethyl]-(9H-purin-6-yl)-amine] reads 0.149 µM. The same measure, in the same setting: the result for `C[C@H](Nc1ncnc2[nH]cnc12)c1nc2ccc(F)c(C#N)c2n1-c1cccnc1` [Example 281, 5-Fluoro-2-[(S)-1-(9H-purin-6-ylamino)-ethyl]-3-pyridin-3-yl-3H-benzoimidazole-4-carbonitrile] reads 0.11 µM; that for `C[C@H](Nc1ncnc2[nH]cnc12)c1nc2ccc(F)cc2n1[C@H]1C[C@@H](O)C1` [Example 390, 3-[6-fluoro-2-[(1S)-1-(9H-purin-6-ylamino)ethyl]benzimidazol-1-yl]cyclobutanol], 0.146 µM; that for `C[C@H](Nc1ncnc(N)c1C#N)c1nc2ccc(F)cc2n1-c1cnn(C)c1` [Example 418, 4-amino-6-[[(1S)-1-[6-fluoro-1-(1-methylpyrazol-4-yl)benzimidazol-2-yl]ethyl]amino]pyrimidine-5-carbonitrile], 0.107 µM.
